Experimental data as given in patent publication US20230095695A1, “RNAS FOR COMPLEMENT INHIBITION” (Apellis Pharmaceuticals, Inc., priority 2020, published 2023).
Oligonucleotides are written 5' to 3', each unit as a sugar letter and its base; * is a phosphorothioate linkage, no mark a phosphodiester; rarer units and linkages stand in square brackets, end groups in braces. Plain capitals give the bases only. m = 2'-O-methyl; {P} = phosphate; f = 2'-fluoro

Test system: C3 mRNA
Assay: Dose response experiments (DRC) of modification variants, C3 mRNA knockdown in HepG2 cells
Type: cell-based, human
Settings: for IC50 / IC80: 10 concentrations from 100 nM in 6-fold dilution steps; for Max KD: DRC experiments
Procedure: HepG2 cells were obtained from ATCC (ATCC in partnership with LGC Standards, Wesel, Germany, cat. #ATCC-HB-8065) and cultured in MEM Eagle (#M2279, Sigma-Aldrich, Germany), supplemented to contain 10% fetal calf serum (#1248D, Biochrom GmbH, Berlin, Germany), 1× non-essential amino acids (#K0293; Biochrom, Berlin, Germany), 4 mM L-Glutamine (#K0283, Biochrom, Berlin, Germany) and 100 U/ml Penicillin/100 μg/ml Streptomycin (#A2213, Biochrom GmbH, Berlin, Germany) at 37° C. in an atmosphere with 5% CO2 in a humidified incubator.
siRNAs were designed and synthesized based on the nucleotide sequence of the top siRNAs in terms of activity from Examples 1 and 2 (siRNA ID: 1, 4, 9, 10, 16, and 22) with different modification patterns. 5 “variants” were designed and synthesized for each of the top siRNA nucleotide sequences, and each duplex is identified as “variant1”, “variant2”, “variant3”, variant4”, “variant5” depending on which modifications were made. siRNAs from Examples 1 and 2 (siRNA ID: 1, 4, 9, 10, 16, and 22) are identified as “variant0”.
Transfection of siRNA was carried out with Lipofectamine RNAiMax (Invitrogen/Life Technologies, Karlsruhe, Germany) according to manufacturer's instructions for reverse transfection.
Each siRNA was tested using dose response experiments (DRC) in HepG2 cells. Two additional siRNAs (siRNA ID 26 and 27), known to knockdown C3 expression, were used as positive controls.
Dose-response experiments were done with siRNA in 10 concentrations transfected in quadruplicates, starting at 100 nM in 6-fold dilutions steps down to ˜10 fM. Mock transfected cells served as negative controls.
For each well, the target mRNA level was normalized to the respective GAPDH mRNA level. The activity of a given siRNA was expressed as percent mRNA concentration of the respective target (normalized to GAPDH mRNA) in treated cells, relative to the target mRNA concentration (normalized to GAPDH mRNA) averaged across mock transfected wells (DRCs).

For “29 (sense fU*mC*fAmAfCmUfCmAfCmCfUmGfUmAfAmUfAmAfA; antisense mU*fU*mUfAmUfUmAfCmAfGmGfUmGfAmGfUmUfGmA*mU*mC; siRNA) [compound 29]”, the IC50 was 0.979 nM and the “Max KD” value was 68%.
“48 (sense mC*mA*fAmUmGmAfCfUfUmUmGfAmCmGmAmGfUmAmA; antisense mU*fU*mAmCmUmCmGmUmCmAmAmAmGfUmCmAmUmUmG*mG*mA; siRNA) [compound 48]” was tested, and the IC50 was 0.119 nM, the IC80 was 8.35 nM and the “Max KD” value was 82%.
With “41 (sense fA*mU*fCmGfGmAfUmCfUmUfCmAfCmCfGmUfCmAfA; antisense mU*fU*mGmAmCfGmGmUmGmAmAmGmAfUmCfCmGmAmU*mA*mG; siRNA) [compound 41]” the IC50 was 1.4 nM, the IC80 was 11.1 nM and the “Max KD” value was 84%.
In the case of “53 (sense mC*mC*fAmAmCmUfAfCfAmUmGfAmAmCmCmUfAmCmA; antisense mU*fG*mUmAmGmGmUmUmCmAmUmGmUfAmGmUmUmGmG*mC*mU; siRNA) [compound 53]”, the IC50 is reported as 0.056 nM, the IC80 is reported as 0.51 nM and the “Max KD” value is reported as 91%.
In the case of “38 (sense mA*mU*fCmGmGmAfUfCfUmUmCfAmCmCmGmUfCmAmA; antisense mU*fU*mGmAmCmGmGmUmGmAmAmGmAfUmCmCmGmAmU*mA*mG; siRNA) [compound 38]”, the IC50 is reported as 0.151 nM, the IC80 is reported as 0.728 nM and the “Max KD” value is reported as 91%.
In the case of “35 (sense fU*mC*fCmAfAmGfCmCfUmUfGmGfCmUfCmAfAmUfA; antisense mU*fA*mUmUmGmAmGmCmCmAmAmGmGfCmUmUmGmGmA*mA*mC; siRNA) [compound 35]”, the IC50 is reported as 0.622 nM and the “Max KD” value is reported as 55%.
“45 (sense fU*mC*fAmAfCmUfUmCfCmUfCmCfUmGfCmGfAmAfA; antisense mU*fU*mUmCmGmCmAmGmGmAmGmGmAfAmGmUmUmGmA*mC*mG; siRNA) [compound 45]” was tested, and the IC50 was 0.905 nM and the “Max KD” value was 50%.
“43 (sense mU*mC*fAmAmCmUfUfCfCmUmCfCmUmGmCmGfAmAmA; antisense mU*fU*mUmCmGmCmAmGmGmAmGmGmAfAmGmUmUmGmA*mC*mG; siRNA) [compound 43]” was tested, and the IC50 was 0.096 nM, the IC80 was 3.22 nM and the “Max KD” value was 82%.
In the case of “34 (sense fU*mC*fCmAfAmGfCmCfUmUfGmGfCmUfCmAfAmUfA; antisense mU*fA*mUfUmGfAmGfCmCfAmAfGmGfCmUfUmGfGmA*mA*mC; siRNA) [compound 34]”, the IC50 is reported as 0.324 nM, the IC80 is reported as 1.64 nM and the “Max KD” value is reported as 86%.
For “51 (sense fC*mA*fAmUfGmAfCmUfUmUfGmAfCmGfAmGfUmAfA; antisense mU*fU*mAmCmUfCmGmUmCmAmAmAmGfUmCfAmUmUmG*mG*mA; siRNA) [compound 51]”, the “Max KD” value was 32%.
“32 (sense mU*mC*fAmAmCmUfCfAfCmCmUfGmUmAmAmUfAmAmA; antisense mU*fU*mUmAmUfUmAmCmAmGmGmUmGfAmGfUmUmGmA*mU*mC; siRNA) [compound 32]” was tested, and the “C3 knockdown, comparison among modification variants of the same nucleotide sequence” value was “most effective in C3 knockdown”, the IC50 was 0.018 nM and the IC80 was 0.108 nM. For the same substance, the “Max KD” value was 93%.
For “47 (sense UCAACUUCCUCCUGCGAAA; antisense UUUCGCAGGAGGAAGUUGACG; 2'-F, 2'-OMe, phosphorothioate modifications, chemistry not fully specified) [compound 47]”, the IC50 was 0.055 nM, the IC80 was 0.708 nM and the “Max KD” value was 83%.
In the case of “37 (sense mU*mC*fCmAmAmGfCfCfUmUmGfGmCmUmCmAfAmUmA; antisense mU*fA*mUmUmGfAmGmCmCmAmAmGmGfCmUfUmGmGmA*mA*mC; siRNA) [compound 37]”, the IC50 is reported as 0.168 nM, the IC80 is reported as 1.38 nM and the “Max KD” value is reported as 86%.
For “28 (sense mU*mC*fAmAmCmUfCfAfCmCmUfGmUmAmAmUfAmAmA; antisense mU*fU*mUmAmUmUmAmCmAmGmGmUmGfAmGmUmUmGmA*mU*mC; siRNA) [compound 28]”, the IC50 was 0.001 nM, the IC80 was 0.711 nM and the “Max KD” value was 95%.
With “52 (sense mC*mA*fAmUmGmAfCfUfUmUmGfAmCmGmAmGfUmAmA; antisense mU*fU*mAmCmUfCmGmUmCmAmAmAmGfUmCfAmUmUmG*mG*mA; siRNA) [compound 52]” the IC50 was 0.058 nM, the IC80 was 1.89 nM and the “Max KD” value was 85%.
With “50 (sense fC*mA*fAmUfGmAfCmUfUmUfGmAfCmGfAmGfUmAfA; antisense mU*fU*mAmCmUmCmGmUmCmAmAmAmGfUmCmAmUmUmG*mG*mA; siRNA) [compound 50]” the “Max KD” value was 16%.
In the case of “33 (sense mU*mC*fCmAmAmGfCfCfUmUmGfGmCmUmCmAfAmUmA; antisense mU*fA*mUmUmGmAmGmCmCmAmAmGmGfCmUmUmGmGmA*mA*mC; siRNA) [compound 33]”, the IC50 is reported as 0.075 nM, the IC80 is reported as 0.601 nM and the “Max KD” value is reported as 91%.
In the case of “30 (sense fU*mC*fAmAfCmUfCmAfCmCfUmGfUmAfAmUfAmAfA; antisense mU*fU*mUmAmUmUmAmCmAmGmGmUmGfAmGmUmUmGmA*mU*mC; siRNA) [compound 30]”, the “Max KD” value is reported as 36%.
“57 (sense mC*mC*fAmAmCmUfAfCfAmUmGfAmAmCmCmUfAmCmA; antisense mU*fG*mUmAmGfGmUmUmCmAmUmGmUfAmGfUmUmGmG*mC*mU; siRNA) [compound 57]” was tested, and the IC50 was 0.029 nM, the IC80 was 1.38 nM and the “Max KD” value was 91%.
“42 (sense mA*mU*fCmGmGmAfUfCfUmUmCfAmCmCmGmUfCmAmA; antisense mU*fU*mGmAmCfGmGmUmGmAmAmGmAfUmCfCmGmAmU*mA*mG; siRNA) [compound 42]” was tested, and the IC50 was 0.5 nM, the IC80 was 2.91 nM and the “Max KD” value was 84%.
“54 (sense fC*mC*fAmAfCmUfAmCfAmUfGmAfAmCfCmUfAmCfA; antisense mU*fG*mUfAmGfGmUfUmCfAmUfGmUfAmGfUmUfGmG*mC*mU; siRNA) [compound 54]” was tested, and the IC50 was 0.29 nM, the IC80 was 1.52 nM and the “Max KD” value was 89%.
For “39 (sense fA*mU*fCmGfGmAfUmCfUmUfCmAfCmCfGmUfCmAfA; antisense mU*fU*mGfAmCfGmGfUmGfAmAfGmAfUmCfCmGfAmU*mA*mG; siRNA) [compound 39]”, the IC50 was 0.326 nM, the IC80 was 1.66 nM and the “Max KD” value was 86%.
In the case of “26 (sense CAACUCACCUGUAAUAAAUUU; antisense AUUUAUUACAGGUGAGUUGUU; siRNA; sense: all phosphodiester, sugars by position not given here; antisense: all phosphodiester, 5' {P}, sugars by position not given here) [compound 26]”, the IC50 is reported as 0.006 nM, the IC80 is reported as 0.062 nM and the “Max KD” value is reported as 86%.
With “46 (sense fU*mC*fAmAfCmUfUmCfCmUfCmCfUmGfCmGfAmAfA; antisense mU*fU*mUmCmGfCmAmGmGmAmGmGmAfAmGfUmUmGmA*mC*mG; siRNA) [compound 46]” the IC50 was 0.54 nM and the “Max KD” value was 63%.
For “49 (sense fC*mA*fAmUfGmAfCmUfUmUfGmAfCmGfAmGfUmAfA; antisense mU*fU*mAfCmUfCmGfUmCfAmAfAmGfUmCfAmUfUmG*mG*mA; siRNA) [compound 49]”, the “Max KD” value was 28%.
“31 (sense fU*mC*fAmAfCmUfCmAfCmCfUmGfUmAfAmUfAmAfA; antisense mU*fU*mUmAmUfUmAmCmAmGmGmUmGfAmGfUmUmGmA*mU*mC; siRNA) [compound 31]” was tested, and the IC50 was 0.343 nM, the IC80 was 7.64 nM and the “Max KD” value was 81%.
With “40 (sense fA*mU*fCmGfGmAfUmCfUmUfCmAfCmCfGmUfCmAfA; antisense mU*fU*mGmAmCmGmGmUmGmAmAmGmAfUmCmCmGmAmU*mA*mG; siRNA) [compound 40]” the IC50 was 0.468 nM, the IC80 was 2.44 nM and the “Max KD” value was 87%.
For “36 (sense fU*mC*fCmAfAmGfCmCfUmUfGmGfCmUfCmAfAmUfA; antisense mU*fA*mUmUmGfAmGmCmCmAmAmGmGfCmUfUmGmGmA*mA*mC; siRNA) [compound 36]”, the IC50 was 0.486 nM and the “Max KD” value was 68%.
In the case of “56 (sense fC*mC*fAmAfCmUfAmCfAmUfGmAfAmCfCmUfAmCfA; antisense mU*fG*mUmAmGfGmUmUmCmAmUmGmUfAmGfUmUmGmG*mC*mU; siRNA) [compound 56]”, the IC50 is reported as 0.228 nM, the IC80 is reported as 1.2 nM and the “Max KD” value is reported as 91%.
With “27 (sense GAGCCGUUCUCUACAAUUAUU; antisense UAAUUGUAGAGAACGGCUCUU; siRNA; sense: all phosphodiester, sugars by position not given here; antisense: all phosphodiester, 5' {P}, sugars by position not given here) [compound 27]” the IC50 was 0.004 nM, the IC80 was 0.027 nM and the “Max KD” value was 89%.
In the case of “55 (sense fC*mC*fAmAfCmUfAmCfAmUfGmAfAmCfCmUfAmCfA; antisense mU*fG*mUmAmGmGmUmUmCmAmUmGmUfAmGmUmUmGmG*mC*mU; siRNA) [compound 55]”, the IC50 is reported as 0.265 nM, the IC80 is reported as 1.74 nM and the “Max KD” value is reported as 89%.
With “44 (sense fU*mC*fAmAfCmUfUmCfCmUfCmCfUmGfCmGfAmAfA; antisense mU*fU*mUfCmGfCmAfGmGfAmGfGmAfAmGfUmUfGmA*mC*mG; siRNA) [compound 44]” the IC50 was 0.386 nM and the “Max KD” value was 76%.
